Patent US9539176B2 (BAYER PHARMA AKTIENGESELLSCHAFT, priority 2012, dated 2017)

Test: comparative stress test of the active coating suspension (60° C., 48 hours, HPLC)
Format: physicochemical
Experimental: The chemical stability of the coating suspension was verified by a comparative stress test: micronized candersartan cilexetil as a solid, an aqueous suspension of micronized candesartan cilexetil, and aqueous suspensions of micronized candesartan cilexetil together with Opadry II 85F19250 Clear in three different ratios were stored at 60° C. for 48 hours. The percentage of the stability indicating impurity Desethyl-Candesartan cilexetil was determined via HPLC. The same batch of micronized candesartan cilexetil has been used for all samples.

Desethyl-Candesartan cilexetil, start (start, before storage): 0.11%
Desethyl-Candesartan cilexetil, 48 hours (stored at 60° C. for 48 hours): 0.41%
SMILES: CCOc1nc2cccc(C(=O)OC(C)OC(=O)OC3CCCCC3)c2n1Cc1ccc(-c2ccccc2-c2nnn[nH]2)cc1 (centres unmarked) [micronized candesartan cilexetil (solid), candesartan cilexetil]
